Assay results reported in PMC8922279, “Identification of β-Lactams Active against Mycobacterium tuberculosis by a Consortium of Pharmaceutical Companies and Academic Institutions” (ACS Infectious Diseases, 2022).

How the values were obtained:
[1] = tested on: Caco-2 cells; assay: Caco-2 permeability / efflux transporter substrate; conditions: for Caco-2 Mean Papp A to B / Caco-2 Mean Papp B to A: 3 μM, pH 7.4, 120 min; for Caco-2 Efflux Ratio / Caco-2 Mean Recovery % A to B / Caco-2 Mean Recovery % B to A / Caco-2 Rank Papp / Efflux Transporter Substrate: Caco-2
[2] = In vitro plasma stability, human plasma; conditions: 2 μM, 37 °C, time point 120 min
[3] = tested on: plasma proteins; assay: Plasma protein binding (equilibrium dialysis), cynomolgus monkey; conditions: 2 μM
[4] = In vitro plasma stability, cynomolgus monkey plasma; conditions: 2 μM, 37 °C, time point 120 min
[5] = In vitro plasma stability, beagle dog plasma; conditions: 2 μM, 37 °C, time point 120 min
[6] = In vitro plasma stability, CD-1 mouse plasma; conditions: 2 μM, 37 °C, time point 120 min
[7] = tested on: plasma proteins; assay: Plasma protein binding (equilibrium dialysis), SD rat; conditions: 2 μM
[8] = tested on: Mtb H37Rv; assay: MIC90 against replicating (R) Mtb H37Rv, with or without clavulanate; assay type: cell-based, Mycobacterium tuberculosis; conditions: Table S4; for Mtb H37Rv R + CLAV (MIC90): clavulanate 4 μg/mL; for Mtb H37Rv R (MIC90): no clavulanate
[9] = tested on: plasma proteins; assay: Plasma protein binding (equilibrium dialysis), beagle dog; conditions: 2 μM
[10] = In vitro plasma stability, SD rat plasma; conditions: 2 μM, 37 °C, time point 120 min
[11] = tested on: Mtb H37Rv; assay: MIC90 against nonreplicating (NR, 4-stress) Mtb H37Rv, with or without clavulanate; assay type: cell-based, Mycobacterium tuberculosis; conditions: 4-stress nonreplicating, Table S4; for Mtb H37Rv NR + CLAV (MIC90): clavulanate 4 μg/mL; for Mtb H37Rv NR (MIC90): no clavulanate
[12] = tested on: C. albicans; assay: Microbial spectrum, C. albicans; assay type: cell-based, Candida albicans; conditions: no clavulanate; Table S4
[13] = tested on: S. aureus; assay: Microbial spectrum, S. aureus; assay type: cell-based, Staphylococcus aureus; conditions: clavulanate 4 μg/mL; Table S4
[14] = Stability in simulated gastric fluid (SGF); conditions: 10 μM, pH 1.2, room temperature
[15] = tested on: plasma proteins; assay: Plasma protein binding (equilibrium dialysis), CD-1 mouse; conditions: 2 μM
[16] = tested on: plasma proteins; assay: Plasma protein binding (equilibrium dialysis), human; conditions: 2 μM
[17] = tested on: P. aeruginosa; assay: Microbial spectrum, P. aeruginosa; assay type: cell-based, Pseudomonas aeruginosa; conditions: clavulanate 4 μg/mL; Table S4
[18] = tested on: E. coli; assay: Microbial spectrum, E. coli; assay type: cell-based, Escherichia coli; conditions: clavulanate 4 μg/mL; Table S4
[19] = Stability in fasted simulated intestinal fluid (FaSSIF); conditions: 10 μM, pH 6.5, room temperature

Row | Structure (SMILES) | Caco-2 Mean Papp A to B [1] | Caco-2 Mean Papp B to A [1] | Caco-2 Mean Recovery % A to B [1] [%] | Caco-2 Mean Recovery % B to A [1] [%] | Caco-2 Rank Papp [1] | Plasma stability % Remaining, Human [2] [%] | % bound to plasma, Cynomolgus Monkey [3] [%] | Plasma stability % Remaining, Monkey [4] [%] | Plasma stability % Remaining, Dog [5] [%] | Plasma stability % Remaining, Mouse [6] [%] | % bound to plasma, SD Rat [7] [%] | Mtb H37Rv R + CLAV (MIC90) [8] [µM] | Mtb H37Rv R (MIC90) [8] [µM] | % bound to plasma, Beagle Dog [9] [%] | Plasma stability % Remaining, Rat [10] [%] | Mtb H37Rv NR + CLAV (MIC90) [11] [µM] | Mtb H37Rv NR (MIC90) [11] [µM] | C.albicans R (MIC90) [12] [µM] | S.aureus R + CLAV (MIC90) [13] [µM] | SGF Stability, % remaining, 1h [14] [%] | also measured
1 | NCc1ccccc1CC(=O)N[C@@H]1C(=O)N2C(C(=O)O)=C(CSc3nnnn3CCO)CS[C@H]12 [TBBL-0000656] | < 0.12 10-6 cm/s | 0.27 10-6 cm/s | < 102.47 | 106.09 | Low | 75.1 | 22.0 | 85.7 | 74.7 | 95.0 | 50.2 | 2.1 | 5.8 | 11.2 | 85.1 | > 100 | > 100 | > 100 | > 100 | 87.12 | Caco-2 Efflux Ratio [1]: > 2.26; Efflux Transporter Substrate [1]: Likely; SGF Stability, % remaining, 24h [14]: 53.93%; % bound to plasma, CD-1 Mouse [15]: 23.0%; % bound to plasma, Human [16]: 23.3%; P.aeruginosa R + CLAV (MIC90) [17]: > 100 µM; E.coli R + CLAV (MIC90) [18]: 9.8 µM; FaSSIF Stability, % remaining, 6h [19]: 89.32%; FaSSIF Stability, % remaining, 24h [19]: 70.9%
2 | Cn1nnnc1SCC1=C(C(=O)O)N2C(=O)[C@@H](NC(=O)Cc3ccc(C4=NCCCN4)cc3)[C@H]2SC1 [TBBL-0000309] | 0.18 10-6 cm/s | 0.38 10-6 cm/s | 99.65 | 104.93 | Low | 79.0 | 29.4 | 104.7 | 77.8 | 68.8 | 38.2 | 0.7 | 29.6 | 0.0 | 79.8 | > 100 | > 100 | > 100 | 1.8 | 103.51 | Caco-2 Efflux Ratio [1]: 2.12; Efflux Transporter Substrate [1]: Likely; SGF Stability, % remaining, 24h [14]: 60.13%; % bound to plasma, CD-1 Mouse [15]: 4.1%; % bound to plasma, Human [16]: 24.6%; P.aeruginosa R + CLAV (MIC90) [17]: > 100 µM; E.coli R + CLAV (MIC90) [18]: 20.6 µM; FaSSIF Stability, % remaining, 6h [19]: 95.78%; FaSSIF Stability, % remaining, 24h [19]: 77.15%
3 | CCCc1nnc(SCC2=C(C(=O)O)N3C(=O)[C@@H](NC(=O)Cc4ccc(C(=N)N)cc4)[C@H]3SC2)s1 [TBBL-0000314] | < 0.07 10-6 cm/s | < 0.06 10-6 cm/s | < 94.56 | < 107.68 | Low | 77.2 | 60.1 | 103.9 | 77.0 | 76.2 | 84.6 | 0.8 | 14.1 | 46.7 | 73.3 | > 100 | > 100 | > 100 | 1.6 | 76.41 | SGF Stability, % remaining, 24h [14]: 1.85%; % bound to plasma, CD-1 Mouse [15]: 67.9%; % bound to plasma, Human [16]: 65.7%; P.aeruginosa R + CLAV (MIC90) [17]: > 100 µM; E.coli R + CLAV (MIC90) [18]: > 100 µM; FaSSIF Stability, % remaining, 6h [19]: 101.85%; FaSSIF Stability, % remaining, 24h [19]: 95.17%
4 | CNCc1ccccc1CC(=O)N[C@@H]1C(=O)N2C(C(=O)O)=C(CSc3nnnn3C)CS[C@H]12 [TBBL-0000468] | < 0.25 10-6 cm/s | < 0.21 10-6 cm/s | < 102.74 | < 109.10 | Low | 73.6 | 21.9 | 101.7 | 77.2 | 72.0 | 39.1 | 5.4 | 16.4 | 7.3 | 80.8 | > 100 | > 100 | > 100 | 8.7 | 101.42 | SGF Stability, % remaining, 24h [14]: 49.27%; % bound to plasma, CD-1 Mouse [15]: 1.7%; % bound to plasma, Human [16]: 21.1%; P.aeruginosa R + CLAV (MIC90) [17]: > 100 µM; E.coli R + CLAV (MIC90) [18]: > 100 µM; FaSSIF Stability, % remaining, 6h [19]: 83.23%; FaSSIF Stability, % remaining, 24h [19]: 56.36%
5 | CON=C(C(=O)N[C@@H]1C(=O)N2C(C(=O)O)=C(CSc3cccc[n+]3[O-])CS[C@H]12)c1csc(N)n1 [TBBL-0000539] | < 0.10 10-6 cm/s | 0.31 10-6 cm/s | < 96.40 | 105.53 | Low | 83.4 | 84.3 | 120.8 | 79.7 | 92.4 | 61.3 | 1.9 | 2 | 5.2 | 98.2 | 4.6 | 4.7 | > 100 | 17.3 | 104.45 | Caco-2 Efflux Ratio [1]: > 3.03; Efflux Transporter Substrate [1]: Likely; SGF Stability, % remaining, 24h [14]: 90.77%; % bound to plasma, CD-1 Mouse [15]: 20.9%; % bound to plasma, Human [16]: 56.9%; P.aeruginosa R + CLAV (MIC90) [17]: > 100 µM; E.coli R + CLAV (MIC90) [18]: 13.1 µM
